Experimental data: ChEMBL document CHEMBL1201862, “PubChem BioAssay data set” (2004)
Active and inactive are the calls of the source.

How the values were obtained:
[1] = molecular target: Protein-tyrosine kinase 2-beta (Homo sapiens, UniProt Q14289);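 further: potency of inhibitors of PYK2 kinase phosphorylation of poly-GT substrate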
[2] = LGR2 antagonists, dose response, cell-based, HEK293, CRE-luciferase reporter, cherry pick, set 2 (AID 743343); type: functional;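 further: transfected cells were stimulated with diluted bursicon conditioned medium after compound addition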
[3] = HepG2 cell cytotoxicity, dose response, cytotoxicity control, plate reader, cherry-pick, antagonist series (AID 743416); type: functional, cell-based
[4] = MC4R antagonists, dose response, counter-screen for LGR2 antagonist project, cell-based, plate reader, cherry pick (AID 743444); type: functional;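 further: transfected HEK 293 cells stimulated with alpha-MSH peptide; potency of inhibitors of the alpha-MSH evoked signal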
[5] = A549 cell cytotoxicity, dose response, cytotoxicity control, plate reader, cherry-pick, antagonist series (AID 743412); type: functional, cell-based
[6] = molecular target: Aryl hydrocarbon receptor (Homo sapiens, UniProt P35869); experiment: Luminescence-based cell-based high throughput dose response assay for activators of the Aryl Hydrocarbon Receptor (AHR). [Related pubchem assays: 2796 (Primary screen (AHR activators in singlicate)), 2845 (Confirmation screen (AHR activators in triplicate)), 434939 (Counterscreen (PXR activators in triplicate)), 2804 (Summary (AHR activators))]; type: ADME
Chain of Aryl hydrocarbon receptor (P35869 whole entry): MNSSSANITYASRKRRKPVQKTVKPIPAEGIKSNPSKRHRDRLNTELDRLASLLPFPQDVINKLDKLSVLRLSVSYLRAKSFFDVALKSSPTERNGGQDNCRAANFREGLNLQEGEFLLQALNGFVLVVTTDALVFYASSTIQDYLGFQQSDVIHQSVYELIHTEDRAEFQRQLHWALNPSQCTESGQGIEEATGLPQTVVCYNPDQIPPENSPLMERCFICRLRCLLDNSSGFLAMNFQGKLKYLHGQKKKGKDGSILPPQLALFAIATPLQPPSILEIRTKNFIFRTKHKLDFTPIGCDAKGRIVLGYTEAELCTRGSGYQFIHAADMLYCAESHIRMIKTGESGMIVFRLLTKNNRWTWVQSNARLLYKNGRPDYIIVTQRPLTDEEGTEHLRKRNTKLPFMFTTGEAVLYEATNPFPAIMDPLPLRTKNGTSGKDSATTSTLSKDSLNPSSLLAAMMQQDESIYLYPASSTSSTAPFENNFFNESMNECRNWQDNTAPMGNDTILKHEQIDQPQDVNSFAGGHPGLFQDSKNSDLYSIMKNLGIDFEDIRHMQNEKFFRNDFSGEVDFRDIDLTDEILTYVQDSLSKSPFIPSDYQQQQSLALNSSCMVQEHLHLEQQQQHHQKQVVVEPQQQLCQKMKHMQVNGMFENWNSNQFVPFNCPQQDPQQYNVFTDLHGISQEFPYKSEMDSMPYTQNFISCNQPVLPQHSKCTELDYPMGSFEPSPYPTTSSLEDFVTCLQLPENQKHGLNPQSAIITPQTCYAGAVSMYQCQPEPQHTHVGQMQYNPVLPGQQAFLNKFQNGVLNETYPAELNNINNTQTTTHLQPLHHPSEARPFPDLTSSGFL

Protein Tat = Protein Tat (Human immunodeficiency virus type 1 group M subtype B (isolate HXB2)(HIV-1), UniProt P04608); type: functional;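 further: tat binding to TAR RNA read out by fluorescence polarization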
Chain of Protein Tat (P04608 whole entry): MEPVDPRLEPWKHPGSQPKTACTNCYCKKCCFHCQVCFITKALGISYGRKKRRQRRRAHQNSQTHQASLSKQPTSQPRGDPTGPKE

[7] = molecular target: Heat shock protein HSP 90-alpha (Homo sapiens, UniProt P07900); experiment: Luminescence-based dose response biochemical high throughput screening assay for inhibitors of the Heat Shock Protein 90 (HSP90). [Related pubchem assays: 1831 (Summary AID.), 1846 (Confirmation screen.), 1789 (Primary screen.)]
[8] = molecular target: Lytic switch protein BZLF1 (Epstein-Barr virus (strain B95-8) (HHV-4) (Human herpesvirus 4), UniProt P03206); experiment: EBV ZTA inhibitors, dose response, counter-screen for EBNA-1 inhibitor project, biochemical, fluorescence polarization, Epstein-Barr virus, 1536-well (AID 2377); set-up: species or system human gammaherpesvirus 4;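 further: fluorescence polarization of Cy5-labelled ZRE DNA probe bound by purified Zta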
Chain of Lytic switch protein BZLF1 (P03206 whole entry): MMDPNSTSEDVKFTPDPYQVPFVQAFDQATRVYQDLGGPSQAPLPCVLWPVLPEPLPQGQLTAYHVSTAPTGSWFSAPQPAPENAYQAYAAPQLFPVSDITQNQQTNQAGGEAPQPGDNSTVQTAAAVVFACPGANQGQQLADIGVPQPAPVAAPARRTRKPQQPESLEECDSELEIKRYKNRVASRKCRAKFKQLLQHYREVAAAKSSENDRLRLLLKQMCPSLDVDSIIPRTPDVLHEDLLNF

[9] = molecular target: Epstein-Barr nuclear antigen 1 (Epstein-Barr virus (strain B95-8) (HHV-4) (Human herpesvirus 4), UniProt P03211); experiment: EBNA-1 inhibitors, dose response, biochemical, fluorescence polarization, 1536-well (AID 2381); set-up: species or system human gammaherpesvirus 4;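 further: fluorescence polarization of a Cy5 DNA probe bound by EBNA-1 protein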
Chain of Epstein-Barr nuclear antigen 1 (P03211 whole entry): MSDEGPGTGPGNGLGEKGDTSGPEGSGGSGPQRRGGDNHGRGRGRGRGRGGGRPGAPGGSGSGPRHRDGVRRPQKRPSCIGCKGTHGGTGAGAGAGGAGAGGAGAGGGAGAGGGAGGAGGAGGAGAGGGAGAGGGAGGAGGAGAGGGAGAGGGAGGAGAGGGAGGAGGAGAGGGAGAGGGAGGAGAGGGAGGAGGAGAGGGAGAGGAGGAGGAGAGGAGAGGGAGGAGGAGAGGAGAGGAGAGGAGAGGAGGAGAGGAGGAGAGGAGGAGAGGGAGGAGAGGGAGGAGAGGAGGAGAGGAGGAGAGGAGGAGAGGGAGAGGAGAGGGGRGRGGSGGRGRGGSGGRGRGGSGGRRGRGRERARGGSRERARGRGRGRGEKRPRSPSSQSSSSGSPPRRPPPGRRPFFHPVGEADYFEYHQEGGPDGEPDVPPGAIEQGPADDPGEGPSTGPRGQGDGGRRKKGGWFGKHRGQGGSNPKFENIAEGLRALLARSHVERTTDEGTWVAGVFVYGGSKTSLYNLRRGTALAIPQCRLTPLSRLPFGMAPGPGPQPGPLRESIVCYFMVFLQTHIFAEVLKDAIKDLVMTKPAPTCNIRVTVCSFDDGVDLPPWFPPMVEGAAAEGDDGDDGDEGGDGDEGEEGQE

NS3 = NS3 (Hepatitis C virus, UniProt A3EZJ3); experiment: PubChem AID 2173; set-up: species or system Hepacivirus hominis
Chain of NS3 (A3EZJ3 whole entry): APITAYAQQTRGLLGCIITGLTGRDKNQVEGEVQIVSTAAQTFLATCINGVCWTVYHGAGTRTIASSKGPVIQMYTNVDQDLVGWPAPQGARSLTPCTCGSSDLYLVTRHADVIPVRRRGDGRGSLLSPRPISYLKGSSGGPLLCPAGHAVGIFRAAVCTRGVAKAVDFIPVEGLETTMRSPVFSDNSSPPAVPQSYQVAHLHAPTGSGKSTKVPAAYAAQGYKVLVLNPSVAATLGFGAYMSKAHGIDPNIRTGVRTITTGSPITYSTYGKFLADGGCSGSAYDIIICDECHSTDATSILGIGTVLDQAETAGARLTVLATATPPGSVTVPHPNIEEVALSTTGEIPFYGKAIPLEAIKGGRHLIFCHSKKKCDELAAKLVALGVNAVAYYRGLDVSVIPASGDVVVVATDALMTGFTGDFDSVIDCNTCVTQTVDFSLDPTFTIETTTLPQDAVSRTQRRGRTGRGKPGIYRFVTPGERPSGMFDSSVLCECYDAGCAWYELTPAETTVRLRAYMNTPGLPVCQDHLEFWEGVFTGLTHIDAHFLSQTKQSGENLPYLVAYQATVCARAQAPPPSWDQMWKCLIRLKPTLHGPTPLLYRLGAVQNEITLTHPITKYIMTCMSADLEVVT

[10] = molecular target: T1, Low molecular weight phosphotyrosine protein phosphatase (Homo sapiens, UniProt P24666); type: functional; conditions: read-out: IC50_Mean
T1 sequence (P24666 whole entry): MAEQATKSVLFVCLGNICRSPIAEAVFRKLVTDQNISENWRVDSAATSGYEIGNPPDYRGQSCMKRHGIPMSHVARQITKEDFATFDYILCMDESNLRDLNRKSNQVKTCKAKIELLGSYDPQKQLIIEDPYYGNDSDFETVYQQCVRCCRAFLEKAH

[11] = molecular target: T2, Heat shock factor protein 1 (Mus musculus, UniProt P38532); experiment: inhibition of MG132-induced HSE-luciferase signal, confirmation, cell-based, NIH3T3, luminescence, dose retest (AID 2382); type: functional;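 further: NIH3T3 fibroblasts with HSF1-driven luciferase reporter stressed by proteasome inhibitor MG132; luminescence from HSF1-driven luciferase expression after 8 hours of MG132 stress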
T2 sequence (P38532 whole entry): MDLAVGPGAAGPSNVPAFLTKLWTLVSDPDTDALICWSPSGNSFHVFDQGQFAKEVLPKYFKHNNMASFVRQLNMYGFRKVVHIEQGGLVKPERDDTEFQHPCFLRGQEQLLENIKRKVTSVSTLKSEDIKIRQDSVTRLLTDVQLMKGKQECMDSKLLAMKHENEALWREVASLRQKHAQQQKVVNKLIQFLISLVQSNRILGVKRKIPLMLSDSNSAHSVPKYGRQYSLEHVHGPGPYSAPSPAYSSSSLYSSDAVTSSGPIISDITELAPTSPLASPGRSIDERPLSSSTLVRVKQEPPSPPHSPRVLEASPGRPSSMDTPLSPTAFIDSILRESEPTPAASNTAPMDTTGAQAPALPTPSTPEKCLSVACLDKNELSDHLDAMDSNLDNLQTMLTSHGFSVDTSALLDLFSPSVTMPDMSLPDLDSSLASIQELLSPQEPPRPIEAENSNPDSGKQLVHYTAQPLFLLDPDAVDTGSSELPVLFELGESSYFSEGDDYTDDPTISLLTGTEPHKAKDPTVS

[12] = molecular target: T1, Low molecular weight phosphotyrosine protein phosphatase; type: functional; conditions: read-out: IC50_Mean; remark: listed apart in the source
Protein skinhead-1 = molecular target: T3, Protein skinhead-1 (Caenorhabditis elegans, UniProt P34707); type: functional
T3 sequence (P34707 whole entry): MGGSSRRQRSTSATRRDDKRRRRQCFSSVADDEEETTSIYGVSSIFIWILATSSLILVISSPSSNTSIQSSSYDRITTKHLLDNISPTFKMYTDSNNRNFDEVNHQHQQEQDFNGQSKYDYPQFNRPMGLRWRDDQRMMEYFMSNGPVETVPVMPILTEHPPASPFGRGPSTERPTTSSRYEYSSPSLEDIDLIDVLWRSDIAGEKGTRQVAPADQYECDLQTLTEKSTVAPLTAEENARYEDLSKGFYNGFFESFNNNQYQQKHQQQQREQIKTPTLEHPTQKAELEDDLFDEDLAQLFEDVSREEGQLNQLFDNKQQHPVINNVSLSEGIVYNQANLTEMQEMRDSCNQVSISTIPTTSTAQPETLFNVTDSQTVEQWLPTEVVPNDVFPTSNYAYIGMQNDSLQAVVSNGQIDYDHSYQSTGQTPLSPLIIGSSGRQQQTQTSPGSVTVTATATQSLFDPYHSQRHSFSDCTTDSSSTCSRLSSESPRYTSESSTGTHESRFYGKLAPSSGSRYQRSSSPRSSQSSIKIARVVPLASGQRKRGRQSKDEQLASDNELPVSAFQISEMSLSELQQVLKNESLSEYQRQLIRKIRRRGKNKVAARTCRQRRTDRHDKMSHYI

Bcl-2-related protein A1 [13] = molecular target: T4, Bcl-2-related protein A1 (Mus musculus, UniProt Q07440); experiment: Bfl-1 inhibitors blocking BH3 peptide binding, confirmation, biochemical, TR-FRET, mouse Bfl-1 (AID 621);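 further: TR-FRET binding of GST-Bfl-1 to FITC-labelled Bid peptide via terbium antibody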
T4 sequence (Q07440 whole entry): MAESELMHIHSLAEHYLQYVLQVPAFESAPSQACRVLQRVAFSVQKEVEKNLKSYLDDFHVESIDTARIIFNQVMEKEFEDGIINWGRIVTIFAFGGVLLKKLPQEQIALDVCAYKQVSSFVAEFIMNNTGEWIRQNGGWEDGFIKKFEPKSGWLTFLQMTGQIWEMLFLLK

Bcl-2-related protein A1 [14] = molecular target: T4, Bcl-2-related protein A1; experiment: Bfl-1 binding inhibitors, SAR follow-up, biochemical, fluorescence polarization (AID 1070)
[15] = HeLa 4N DNA content increase, dose response, cell-based, IC50 (AID 1117351); type: functional
[16] = HeLa 2N DNA content increase, dose response, cell-based, IC50 (AID 1117349); type: functional
Large T antigen = Large T antigen (Simian virus 40, UniProt P03070); type: functional, Betapolyomavirus macacae;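 further: Confirmatory-stage PubChem screen for compounds that inhibit SV40 T antigen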
Chain of Large T antigen (P03070 whole entry): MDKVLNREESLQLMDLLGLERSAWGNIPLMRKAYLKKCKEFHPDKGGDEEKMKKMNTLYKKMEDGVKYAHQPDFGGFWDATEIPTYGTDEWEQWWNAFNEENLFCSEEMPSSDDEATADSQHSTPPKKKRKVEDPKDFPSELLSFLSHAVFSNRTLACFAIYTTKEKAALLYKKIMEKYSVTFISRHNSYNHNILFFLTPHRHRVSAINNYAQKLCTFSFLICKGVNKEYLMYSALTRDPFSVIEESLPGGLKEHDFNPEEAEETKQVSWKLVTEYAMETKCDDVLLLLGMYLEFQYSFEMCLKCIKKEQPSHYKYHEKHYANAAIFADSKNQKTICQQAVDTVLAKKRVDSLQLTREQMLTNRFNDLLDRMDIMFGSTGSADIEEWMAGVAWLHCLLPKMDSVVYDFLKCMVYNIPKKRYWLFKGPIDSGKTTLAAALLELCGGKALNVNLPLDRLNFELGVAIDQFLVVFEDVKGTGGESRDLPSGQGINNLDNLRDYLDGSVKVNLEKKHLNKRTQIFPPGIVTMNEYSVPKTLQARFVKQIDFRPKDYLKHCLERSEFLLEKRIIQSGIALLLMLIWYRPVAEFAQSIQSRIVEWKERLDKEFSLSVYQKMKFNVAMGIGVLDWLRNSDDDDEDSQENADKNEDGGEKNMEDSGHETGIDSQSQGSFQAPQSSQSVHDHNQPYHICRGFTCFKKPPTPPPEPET

Coagulation factor XII = molecular target: T5, Coagulation factor XII (Homo sapiens, UniProt P00748); type: functional;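 further: activated factor XIIa alpha cleaving a fluorogenic AMC peptide substrate; inhibitor potency from loss of enzyme activity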
T5 sequence (P00748 whole entry): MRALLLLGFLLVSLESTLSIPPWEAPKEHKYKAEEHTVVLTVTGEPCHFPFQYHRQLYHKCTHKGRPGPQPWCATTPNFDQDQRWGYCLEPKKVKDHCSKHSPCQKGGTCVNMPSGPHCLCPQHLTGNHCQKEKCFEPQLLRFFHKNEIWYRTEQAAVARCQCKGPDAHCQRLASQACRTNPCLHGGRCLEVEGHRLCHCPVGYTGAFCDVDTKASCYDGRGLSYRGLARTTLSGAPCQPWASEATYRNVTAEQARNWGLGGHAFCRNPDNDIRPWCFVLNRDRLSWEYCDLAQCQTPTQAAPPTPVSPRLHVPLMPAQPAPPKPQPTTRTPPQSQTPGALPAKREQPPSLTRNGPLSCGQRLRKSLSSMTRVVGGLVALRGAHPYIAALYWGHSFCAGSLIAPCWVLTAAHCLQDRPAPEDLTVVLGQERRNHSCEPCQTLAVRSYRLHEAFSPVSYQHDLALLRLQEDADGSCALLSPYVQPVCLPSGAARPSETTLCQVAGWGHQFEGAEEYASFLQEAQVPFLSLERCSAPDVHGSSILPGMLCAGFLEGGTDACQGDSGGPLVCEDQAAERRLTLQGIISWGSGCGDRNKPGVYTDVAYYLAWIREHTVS

[17] = Luminescence Cell-Based Dose Confirmation HTS to Identify Inhibitors of Polyadenylation.; type: functional
[18] = inhibitors of Bluetongue virus cytopathic effect, confirmation, arbovirus, BSR cells (AID 1250); type: functional;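 further: protection from viral cytopathic effect measured as cell viability by ATP luminescence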
[19] = molecular target: Dual specificity tyrosine-phosphorylation-regulated kinase 1A (Rattus norvegicus, UniProt Q63470); type: biochemical, Homo sapiens
[20] = inhibitors of SNCA 5'UTR-driven reporter translation, confirmation, H4 neuroglioma cells, luminescence (AID 1988); type: functional, cell-based
[21] = HEK293 cell cytotoxicity, dose response, cytotoxicity control, plate reader, cherry-picked samples (AID 743446); type: functional, cell-based
[22] = Luminescence-based counterscreen assay for KLF5 inhibitors: dose response cell-based high throughput screening assay to identify cytotoxic compounds using the IEC-6 intestinal epithelial cell line. [Related pubchem assays: 1700 (Primary screen.), 1834 (Confirmation screen.), 1858 (Summary AID.), 1905 (Counterscreen.)]; type: functional
[23] = molecular target: Luciferin 4-monooxygenase (Photinus pyralis, UniProt P08659); experiment: firefly luciferase enzyme inhibitors, dose response, biochemical, luminescence (AID 1891)
[24] = Luminescence Cell-Based Dose Response HTS to Identify Inhibitors of 5'UTR Stem-Loop Driven Prion Protein mRNA Translation in H4 Neuroglioblastoma Cells. [Related pubchem assays: 1827 (Project Summary), 1813 (Primary HTS)]; type: functional
[25] = Luminescence Cell-Based Dose Confirmation HTS to Identify Inhibitors of Platelet Dense Granule Release. [Related pubchem assays: 1663 (Primary HTS), 1678 (Summary of Project)]; type: functional
[26] = molecular target: Glyceraldehyde-3-phosphate dehydrogenase (Homo sapiens, UniProt P04406)
Chain of Glyceraldehyde-3-phosphate dehydrogenase (P04406 whole entry): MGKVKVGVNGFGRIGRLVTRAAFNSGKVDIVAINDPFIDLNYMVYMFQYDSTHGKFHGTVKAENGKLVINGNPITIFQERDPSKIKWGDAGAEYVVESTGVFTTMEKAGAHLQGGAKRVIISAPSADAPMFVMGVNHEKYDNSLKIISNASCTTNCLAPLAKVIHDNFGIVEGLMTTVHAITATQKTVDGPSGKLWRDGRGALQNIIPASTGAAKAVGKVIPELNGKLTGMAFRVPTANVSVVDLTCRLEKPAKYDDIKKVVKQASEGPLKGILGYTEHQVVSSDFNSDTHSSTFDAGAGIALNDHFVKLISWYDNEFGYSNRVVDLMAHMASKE

[27] = Dose-response inhibition of insulin secretion in a rat insulinoma line at 5 mM glucose (AID 1117331); type: functional, cell-based; conditions: INS-1E
cells = type: functional, cell-based; conditions: INS-1E

Chain of Protein-tyrosine kinase 2-beta (Q14289 whole entry): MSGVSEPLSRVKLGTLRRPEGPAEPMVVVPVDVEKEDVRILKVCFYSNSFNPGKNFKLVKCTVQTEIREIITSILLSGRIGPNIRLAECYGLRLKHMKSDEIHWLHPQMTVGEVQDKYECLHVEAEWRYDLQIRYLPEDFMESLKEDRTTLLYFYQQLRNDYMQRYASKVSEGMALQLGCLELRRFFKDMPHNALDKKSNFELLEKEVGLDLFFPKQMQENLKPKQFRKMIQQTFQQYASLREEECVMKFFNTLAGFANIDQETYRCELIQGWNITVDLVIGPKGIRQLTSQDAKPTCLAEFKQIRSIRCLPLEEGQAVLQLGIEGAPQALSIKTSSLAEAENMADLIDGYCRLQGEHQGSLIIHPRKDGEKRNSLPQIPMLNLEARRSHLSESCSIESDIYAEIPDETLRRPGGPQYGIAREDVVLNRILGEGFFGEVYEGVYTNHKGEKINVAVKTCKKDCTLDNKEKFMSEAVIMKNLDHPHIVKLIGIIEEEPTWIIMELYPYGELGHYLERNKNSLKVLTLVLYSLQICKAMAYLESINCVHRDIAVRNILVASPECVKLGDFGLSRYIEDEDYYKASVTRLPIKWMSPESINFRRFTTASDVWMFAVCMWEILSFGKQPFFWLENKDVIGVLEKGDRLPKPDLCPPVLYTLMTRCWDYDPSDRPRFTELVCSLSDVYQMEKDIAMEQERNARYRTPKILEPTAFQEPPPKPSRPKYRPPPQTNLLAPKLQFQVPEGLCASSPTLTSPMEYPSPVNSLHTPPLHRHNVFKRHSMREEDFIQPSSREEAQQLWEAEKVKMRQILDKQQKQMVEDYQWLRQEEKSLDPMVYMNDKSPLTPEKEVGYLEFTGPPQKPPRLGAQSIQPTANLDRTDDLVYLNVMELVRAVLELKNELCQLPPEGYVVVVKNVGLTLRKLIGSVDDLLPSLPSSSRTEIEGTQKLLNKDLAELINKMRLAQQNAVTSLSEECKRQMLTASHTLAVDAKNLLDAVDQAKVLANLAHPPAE

SMILES: c1ccc(-c2nccc(-c3ccc(-n4cnc5ccccc54)cc3)n2)cc1
- IC50 [1]: 2.64 µM (active)

SMILES: CN1CCN(c2ccc(NC(=O)c3sc4ccccc4c3Cl)cc2)CC1
- AC50 [2]: 2.49 µM (active)
- AC50 [3]: 25.5 µM (active)
- AC50 [4]: 7.85 µM (active)
- AC50 [5]: 22 µM (active)
- EC50 [6]: > 0.377 µM (active)

SMILES: CCOc1ccc(-c2nnn(CC(=O)c3ccc4c(c3)OCCO4)n2)cc1OCC
- IC50 (Protein Tat): > 100 µM (active)

SMILES: Cc1ccc(C(=O)CSc2ccccc2C(=O)O)cc1
- IC50 [7]: 10.8 µM (not active)

SMILES: [O-][n+]1onc2c3cc(-c4ccccc4)nnc3ccc21
- EC50 [6]: 1.48 µM (active)

SMILES: COc1cccc(N2CCN(S(=O)(=O)c3ccc(-c4cnc(C5CC5)o4)cc3)CC2)c1
- IC50 [8]: > 111 µM (not active)
- IC50 [9]: 6.91 µM (active)

SMILES: CCCCOc1ccc(C2C(C(=O)c3ccc(C)o3)=C(O)C(=O)N2Cc2ccco2)cc1 (configuration not stated)
- IC50 (NS3): 3.26 µM (active)
- IC50 [10]: > 80 µM (inactive)
- EC50 [11]: 46.6 µM (active)
- IC50 [12]: 54.5 µM (inactive)

SMILES: Clc1ccc(-n2nnc(-c3cccnc3)n2)cc1Cl
- IC50 (Protein skinhead-1): 57.3 µM (inactive)
- IC50 (Bcl-2-related protein A1 [13]): > 100 µM (not active)
- IC50 (Bcl-2-related protein A1 [14]): > 100 µM (not active)

SMILES: COc1ccc(-c2nc3cc(C4=NNC(=O)CC4C)ccc3[nH]2)cc1 (configuration not stated) [PIMOBENDAN]
- IC50 [15]: > 10 µM (inactive)
- IC50 [16]: > 10 µM (inactive)

SMILES: O=C(O)CN1C(=O)/C(=C/c2ccc(N3CCCCC3)o2)SC1=S
- IC50 (Large T antigen): 31.7 µM (active)
- IC50 (Coagulation factor XII): > 50 µM (inactive)
- EC50 [17]: 10.6 µM (active)

SMILES: N#Cc1c(C(F)(F)F)cc(-c2cccc(Cl)c2)nc1O
- IC50 [18]: 42.9 µM (active)
- AC50 [19]: 7.04 µM (active)

SMILES: O=C(Nc1cccc(O)c1)c1cc(-c2ccc3c(c2)OCO3)on1
- AC50 [2]: 4.08 µM (active)
- EC50 [20]: 5.97 µM (active)
- AC50 [21]: 6.57 µM (active)
- IC50 [22]: > 39.8 µM (not active)
- EC50 [23]: 0.349 µM (active)
- EC50 [24]: > 120 µM (not active)
- EC50 [25]: 1.71 µM (active)
- AC50 [4]: 5.8 µM (active)

SMILES: O=C1C(Cl)=C(Cl)C(=O)N1c1cccc(Cl)c1
- IC50 (Bcl-2-related protein A1 [13]): 5.17 µM (active)
- IC50 [26]: > 100 µM (not active)
- IC50 (Bcl-2-related protein A1 [14]): 3.41 µM (active)

SMILES: CC(Oc1ccccc1)C(=O)Nc1oc(-c2ccco2)c(-c2ccco2)c1C#N (configuration not stated)
- IC50 (NS3): 16.7 µM (not active)

SMILES: COc1ccc(C2CC(C(F)(F)F)n3nc(C(=O)Nc4ccc5c(c4)OCO5)cc3N2)cc1 (configuration not stated)
- IC50 [8]: > 111 µM (not active)
- IC50 (Coagulation factor XII): > 50 µM (inactive)
- IC50 [9]: 9.48 µM (active)

SMILES: COc1cc(C(=O)OCCCN2CCCN(CCCOC(=O)c3cc(OC)c(OC)c(OC)c3)CC2)cc(OC)c1OC [DILAZEP]
- IC50 [27]: 10.2 µM (inactive)
- IC50 (cells): 18 µM (inactive)
